Results: article PMC7433010, “Exploration of multi‐target effects of 3‐benzoyl‐5‐hydroxychromen‐2‐one in Alzheimer’s disease cell and mouse models” (Aging Cell, 2020)

Experiments:
AKT = assay: Western blot of AKT in ∆K280 TauRD‐DsRed SH‐SY5Y cells; assay type: cell-based, human
Protocol: (§1) Total proteins from ∆K280 TauRD-DsRed SH-SY5Y cells were obtained using a RIPA buffer containing 50 mM Tris-HCl (pH8.0), 150 mM NaCl, 2 mM EDTA (pH8.0), 50 mM NaF, 0.1% SDS, 0.5% sodium deoxycholate, 1% NP40, and a protease inhibitor cocktail (Sigma-Aldrich). After sonication and sitting on ice for 20 min, the lysates were centrifuged at 14,000 × g for 30 min at 4°C. Protein concentrations were determined using a protein assay kit (Bio-Rad, Hercules, CA, USA), with albumin as a standard. Total proteins (20 µg) were electrophoresed on 10% or 12% SDS-polyacrylamide gel and transferred onto polyvinylidene difluoride (PVDF) membranes (Sigma-Aldrich) through reverse electrophoresis. […] Subsequently, immune complexes were detected using a horseradish peroxidase-conjugated goat anti-mouse or goat anti-rabbit IgG antibody (1:5000; GeneTex, Irvive, CA, USA) and a chemiluminescent substrate (Millipore).
Figure S4. ΔK280 TauRD-DsRed SH-SY5Y cells. […] On day 9, neurite outgrowth and caspase 3 activity were measured. In addition, expression of HSPB1, NRF2, and CREB pathways were assessed. (b) Relative AKT, pAKT, ERK, and pERK protein levels analyzed through immunoblotting. […]

[1] = PAMPA‐BBB permeability assay
Protocol: The permeability of LM-031 was determined by a PAMPA-BBB assay. Briefly, the donor well (Millipore) was filled with 300 μl of LM-031 (1 μM) solution. […] The filter membrane (PVDF membrane, pore size 0.45 μm; Millipore) was coated with 4 μl of 20 mg/ml porcine polar brain lipid (Avanti Polar Lipids, Alabaster, AL, USA) in dodecane and the acceptor well was filled with 200 μl of acceptor buffer (5% DMSO in PBS). The filter plate was carefully placed on the donor plate to form a “sandwich” (consisting of aqueous donor on the bottom, artificial lipid membrane in the middle, and aqueous acceptor on the top). Each compound was tested in triplicate. The sandwich plate was incubated at room temperature for 18 h. After the permeation time, the PAMPA sandwich plate was separated. The concentration of LM-031 in the acceptor and donor wells was determined using QTRAP 6500 mass spectrometer (AB SCIEX, Singapore) linked to 1200 HPLC system (Agilent Technologies, Palo Alto, CA, USA).

BAX = assay: Western blot of BAX in ∆K280 TauRD‐DsRed SH‐SY5Y cells; assay type: cell-based, human; details: induced untreated 120%, uninduced 100%
Protocol: as §1

NRF2 [2] = assay: Western blot of NRF2 in ∆K280 TauRD‐DsRed SH‐SY5Y cells; assay type: cell-based, human; details: 1 µM
Protocol: (§2) To knock down CREB expression in ∆K280 TauRD-DsRed SH-SY5Y cells, lentiviral short hairpin RNA (shRNA) targeting CREB (TRCN0000226466), NRF2 (TRCN0000007558), and a negative control scrambled (TRC2.Void) were obtained from National RNAi Core Facility, IMB/GRC, Academia Sinica, Taipei, Taiwan. On day 1, cells were plated on 6-well plates (for protein analysis) or 24-well plates (for neurite outgrowth analysis) in the presence of retinoic acid as described. On the second day, the cells were infected with lentivirus (multiplicity of infection: 3) in medium with polybrene (8 µg/mL; Sigma-Aldrich). On day 3, the culture medium was changed and the cells were pretreated with LM-031 (1 µM) for 8 h, followed by induction of ∆K280 TauRD-DsRed expression. On day 9, the cells were collected for NRF2, CREB, pCREB, and cleaved CASP3 protein analysis or analyzed for neurite outgrowth as described.
as §1

BCL2 = assay: Western blot of BCL2 in ∆K280 TauRD‐DsRed SH‐SY5Y cells; assay type: cell-based, human; details: 1 µM; induced untreated 83%, uninduced 100%
Protocol: as §1

NRF2 [3] = assay: Western blot of NRF2 in hippocampus of STZ‐treated 3 × Tg‐AD mice; assay type: in vivo, mouse; details: STZ 53%, – STZ 100%
Protocol: (§3) In addition, isolated hippocampal and cortex tissues from transgenic mice (as described in Animal studies) were homogenized and extracted proteins (10 µg) were separated and blotted. After being blocked, the membranes were probed with antibody against mouse NRF2 (1:500; Sigma-Aldrich), CREB (1:500; Millipore), pCREB (S133) (1:1000; Millipore), or GAPDH (1:1000; MDBio), and the immune complexes detected as described above.
(§4) Mice harboring APPSwe, PS1M146V, and […] transgenes (3×Tg-AD) (Oddo et al., 2003) were purchased from the Jackson Laboratory (004807; Bar Harbor, ME, USA). Six-month-old male homozygous 3×Tg-AD mice were group housed at 20–25°C and 60% relative humidity under a daily 12-h light/12-h dark cycle, with assess to food and water ad libitum. Mice were randomly divided into 3 groups: – streptozocin (STZ), STZ, and STZ/LM-031 (n = 10 per group). STZ-induced hyperglycemia was used to accelerate the development of AD phenotype (Chen et al., 2014). Briefly, the mice were fasted for 12 h each day prior to intraperitoneal (i.p.) injection of STZ ([…]; Sigma-Aldrich) or vehicle (0.1 M sodium citrate pH4.5) for 4 times (days 2, 3, 9, and 10) (Chen et al., 2019). Mouse body weight was measured and blood glucose level was measured on days 1, 8, 15, 22, and 29 using a blood glucose meter (Bioland Technology, Taipei, Taiwan). […]

pCREB (S133) = assay: Western blot of pCREB (S133) in ∆K280 TauRD‐DsRed SH‐SY5Y cells; assay type: cell-based, human; details: 1 µM; induced untreated 78%, uninduced 100%
Protocol: as §2, with “On day 3, the culture medium was changed and the cells were pretreated with LM-031 (1 µM) for 8 h, followed by induction of ∆K280 TauRD-DsRed expression.” left out
as §1, with “After sonication and sitting on ice for 20 min, the lysates were centrifuged at 14,000 × g for 30 min at 4°C.” left out, “standard.” for “standard. Total proteins (20 µg) were electrophoresed on 10% or 12% SDS-polyacrylamide gel and transferred onto polyvinylidene difluoride (PVDF) membranes (Sigma-Aldrich) through reverse electrophoresis.”

pCREB = assay: Western blot of pCREB in hippocampus of STZ‐treated 3 × Tg‐AD mice; assay type: in vivo, mouse; details: STZ 68%, – STZ 100%
Protocol: as §3, §4

GCLC = assay: Western blot of GCLC in ∆K280 TauRD‐DsRed SH‐SY5Y cells; assay type: cell-based, human; details: 1 µM; induced untreated 78%, uninduced 100%
Protocol: as §1

- Papp at 18 h, 1 µM [1]: 4.8 ± 0.12 ×10⁻⁶ cm/s
SMILES: O=C(c1ccccc1)c1cc2c(O)cccc2oc1=O [LM‐031, 3‐benzoyl‐5‐hydroxychromen‐2‐one]
- AKT level (AKT): not notably affected
- BAX expression (BAX): 76%
- NRF2 protein level (NRF2 [2]; induced untreated 75%, uninduced 100%): 109%
- NRF2 level (NRF2 [2]; NRF2‐specific shRNA‐infected cells, untreated 74%): 98%
- NRF2 level (NRF2 [2]; scrambled shRNA‐infected cells, untreated 70%, uninduced 100%): 105%
- BCL2 protein level (BCL2): 106%
- NRF2 level in hippocampus (NRF2 [3]): 92%
- pCREB (S133) protein level (pCREB (S133)): 124%
- pCREB level in hippocampus (pCREB): 110%
- GCLC protein level (GCLC): 120%
